The format of data set [1] is in vitro ADME. The conditions noted are these: rat plasma, IS 100 ng/mL, n = 3. The method, then: Short-term stability was calculated by keeping the QC samples at room temperature for 4 hours. Long-term stability was investigated by storing the same QC samples at −20°C in a refrigerator for 30 days. The freeze and thaw stability was determined by analyzing the same QC samples after 3 consecutive freeze-thaw (−20 to 20°C) cycles. The postpreparative stability was evaluated by keeping the QC samples at autosampler for 24 hours.

A short description of data set [2]: Pharmacokinetic study in rats after oral administration of R-FF or H-FF extract (UHPLC-MS/MS of serum). Format: in vivo, SD rats. The conditions noted are these: for eliminate rate (judged from t1/2 and MRT values): R-FF group; for double peak phenomena in serum concentration-time curve: both R-FF and H-FF, Figure 3; for AUC(0-inf) / AUC(0-t) / Cmax / Tmax / half-life / MRT last: male, SD, rat, serum, po, 140 g/kg; for AUC(0-inf) / AUC(0-t) / Cmax / Tmax / half-life / MRT last / t 1/2 / C max / MRT0–t / T max: mean ± SD; for AUC(0-inf) / AUC(0-t) / Cmax / Tmax / half-life / t 1/2 / C max / MRT0–t / T max: n = 6; for MRT last: n = 6, read-out: MRT0–t; for change of MRT0–t in H-FF group compared to R-FF group / change of T1/2 in H-FF group compared to R-FF group: oral, H-FF vs R-FF. The method, then:
MS analysis was performed on a TSQ Quantis™ triple quadrupole mass spectrometer (Thermo Scientific™, Vanquish™, (Waltham, MA, USA)) equipped with an autosampler. Chromatographic separation was performed on a Thermo Hypersil GOLD C18 column (100 mm × 2.1 mm, 1.9 µm particles). The column temperature was maintained at 30°C. Through the Thermo Scientific™, TraceFinder™ software was acquired and processed. The mobile phase was composed of acetonitrile (A) and water (both containing 0.3% formic acid) (B) with a gradient elution program (0–5 min:10–19% acetonitrile, 5–8 min:19–25% acetonitrile, 8–28 min:25%–100% acetonitrile, 28–32 min: 100%–10%, and 32–34 min: 10%–10%). The system was re-equilibrated in the initial mobile phase 4.0 min before the next injection. The flow rate was set at 0.3 mL/min, and the injection volume was set as 2 μL.
The analytes were detected on a TSQ Quantis triple quadrupole mass spectrometer by selected reaction monitoring (SRM) equipped with a heated electrospray ionization source operated in negative ion modes. The parameters were set as follows: the sheath gas and the aux gas were set at 30 Arb and 10 Arb, respectively; the ion transfer tube temperature was maintained at 325°C; and the vaporizer temperature was set to 350°C.
5 μL of IS solution containing chloramphenicol 100 ng/ml and 795 μL of acetonitrile were added to a 100 μL drug serum sample for sedimentation of proteins. Subsequently, the 1.5 mL centrifuge tube containing mixture was vortexed for 5 min. After that, the mixture was centrifuged at 12,000 rpm for 20 min at 4°C. Finally, the supernatant fluid was removed and evaporated to dryness under a stream of nitrogen at 35°C. The dried residue was redissolved by 100 μL 50% methanol aqueous solution. And the supernatant prepared above was filtered through 0.22 μm membranes transferred to vials by the UHPLC-MS/MS system for data analysis.
12 adult male SD rats (weighing 250∼300 g) were used in pharmacokinetics experiments and randomly assigned to two groups: R-FF group and H-FF group. Before being administered R-FF or H-FF extract, all the rats fasted but with free access to water for 12 h. The R-FF or H-FF extract was orally administered to the rats (140 g/kg body weight). Aliquots of 0.3 ml blood samples were collected in 1.5 ml heparin lithium-anticoagulant tubes at (0.083, 0.166, 0.333, 0.5, 1, 2, 4, 6, 8, 12, 24, 36, and 48 h) via the postorbital venous plexus veins from each rat after oral administration. The blood sample was immediately centrifuged at 3500 rpm for 5 min, and the supernatant 100 μL serum was transferred into a new centrifuge tube and stored at −80°C until analysis.

Like-named read-outs stand apart in the source and are kept apart here.

For the compound `O=C(N[C@H](CO)[C@H](O)c1ccc([N+](=O)[O-])cc1)C(Cl)Cl` [Chloramphenicol (IS), chloramphenicol], the “Freeze-thaw stability (RE%)” value in data set [1] (3 freeze-thaw cycles (−20 to 20°C)) is −4.77%. The “Short-term stability (RE%)” value in data set [1] (room temperature 4 hours) was determined as 0.74%. In addition, the “Long-term stability (RE%)” value in data set [1] (−20°C 30 days) was −2.22%.

For orientation: AUC(0-inf) means the area under the concentration-time curve extrapolated to infinity. Low readings indicate less exposure, high ones more exposure. In general, AUC(0-t) refers to the area under the concentration-time curve up to a stated or last time point. As a reminder, the Cmax is the highest concentration seen after dosing. What is called Tmax is the time at which the peak concentration occurs. Usually half-life stands for the time needed for the level to fall by half in the phase considered. `O=C(O)/C=C/c1ccc(O)c(O)c1` [Caffeic acid, caffeic acid]: in data set [2], the “eliminate rate (judged from t1/2 and MRT values)” value (shortened to “eliminate rate”) is “slow eliminate rate”; the “double peak phenomena in serum concentration-time curve” value (“double peak phenomena” for short) is “obvious double peak phenomena”. Besides, in data set [2] (oral H-FF extract 140 g/kg), the AUC(0-inf) was determined as 66.8 ± 12.2 µg·h/mL, the AUC(0-t) was determined as 24.1 ± 2.06 µg·h/mL, the highest level (Cmax) was 4550 ± 235 ng/mL and the Tmax worked out at 0.33 h. For the same compound, in data set [2] (oral H-FF extract 140 g/kg), the half-life was 78.9 ± 26 h and the MRT last worked out at 12.7 ± 0.38 h. Also, in data set [2] (oral R-FF extract 140 g/kg), the AUC(0-inf) was 35.2 ± 9.99 µg·h/mL, the AUC(0-t) worked out at 20.2 ± 0.405 µg·h/mL, the Cmax stood at 4470 ± 311 ng/mL and the Tmax was 0.33 h. For the same compound, in data set [2] (oral R-FF extract 140 g/kg), the half-life was 32.3 ± 17.6 h and the MRT last was found to be 14.3 ± 0.25 h.

On to `O=C(C=Cc1ccc(O)c(O)c1)OC1CC(O)(C(=O)O)CC(O)C1OC(=O)C=Cc1ccc(O)c(O)c1` (stereo not drawn) [Isochlorogenic acid B, isochlorogenic acid B], for which, in data set [2], the “eliminate rate” value is recorded as “slow eliminate rate”; the “change of MRT0–t in H-FF group compared to R-FF group” value (shortened to “change of MRT0–t in H-FF group”) was “increased”. In data set [2] (oral H-FF extract 140 g/kg), the AUC(0-inf) was found to be 455 ± 14.6 µg·h/mL, the peak level (Cmax) was 52300 ± 3010 ng/mL, the Tmax came to 0.33 h and the half-life is 16.8 ± 5.09 h. The MRT last in data set [2] (oral H-FF extract 140 g/kg) was determined as 15.2 ± 0.19 h. In data set [2] (oral R-FF extract 140 g/kg), the AUC(0-inf) was 201 ± 7.21 µg·h/mL, the AUC(0-t) amounted to 194 ± 6.58 µg·h/mL, the peak concentration (Cmax) came out at 25200 ± 1590 ng/mL and the Tmax was found to be 0.33 h. In data set [2] (oral R-FF extract 140 g/kg), the MRT last is 10.9 ± 1.04 h and the “t 1/2” value stood at 9.68 ± 1.36 h.

Take `O=C(C=Cc1ccc(O)c(O)c1)OC1CC(O)(C(=O)O)CC(O)C1OC(=O)C=Cc1ccc(O)c(O)c1` (stereo not drawn) [Isochlorogenic acid C, isochlorogenic acid C]: in data set [2], the “eliminate rate” value is given as “slow eliminate rate”; the “change of MRT0–t in H-FF group” value is “increased”. Further, in data set [2] (oral H-FF extract 140 g/kg), the C max was determined as 28183.80 ± 3739.61 ng/mL, the “MRT0–t” value turned out to be 16.42 ± 0.84 h, the T max stood at 0.33 ± 0.00 h and the “t 1/2” value amounted to 22.14 ± 9.73 h. Also, in data set [2] (oral R-FF extract 140 g/kg), the C max is 12916.78 ± 3117.99 ng/mL, the “MRT0–t” value was found to be 14.32 ± 1.56 h, the T max came out at 0.33 ± 0.00 h and the “t 1/2” value came out at 20.36 ± 5.22 h.

In the case of `O=C(C=Cc1ccc(O)c(O)c1)OC1CC(O)(C(=O)O)CC(O)C1O` (stereo not drawn) [Neochlorogenic acid, neochlorogenic acid], in data set [2], the “eliminate rate” value is on record as “slow eliminate rate”; the “double peak phenomena” value was “obvious double peak phenomena”; the “change of T1/2 in H-FF group compared to R-FF group” value (from here on “change of T1/2 in H-FF group”) is on record as “a little shorter”. Further, in data set [2] (oral H-FF extract 140 g/kg), the total exposure AUC(0-inf) was found to be 117 ± 15.9 µg·h/mL, the AUC(0-t) is 95.7 ± 6.56 µg·h/mL, the Cmax is 24700 ± 3220 ng/mL and the Tmax was found to be 0.33 h. In data set [2] (oral H-FF extract 140 g/kg), the half-life was 14.7 ± 3.88 h and the MRT last is 10.9 ± 0.44 h. In data set [2] (oral R-FF extract 140 g/kg), the AUC(0-inf) is 87 ± 8.34 µg·h/mL, the AUC(0-t) was 56 ± 4.22 µg·h/mL, the time of peak concentration (Tmax) came out at 0.33 h and the half-life was 30.1 ± 6.85 h. In addition, the MRT last in data set [2] (oral R-FF extract 140 g/kg) was 12.5 ± 1.19 h.

Regarding `O=C(/C=C/c1ccc(O)c(O)c1)O[C@@H]1C[C@](O)(C(=O)O)C[C@@H](O)[C@H]1O` [Chlorogenic acid, chlorogenic acid], in data set [2], the “eliminate rate” value was “slow eliminate rate”; the “change of T1/2 in H-FF group” value is reported as “a little shorter”. Further, in data set [2] (oral H-FF extract 140 g/kg), the AUC(0-inf) is 428 ± 41.6 µg·h/mL, the AUC(0-t) is 281 ± 10.8 µg·h/mL, the Cmax worked out at 80400 ± 6350 ng/mL and the Tmax is 0.33 h. Moreover, in data set [2] (oral H-FF extract 140 g/kg), the half-life is 32.9 ± 4.87 h and the MRT last amounted to 11.1 ± 0.16 h. Besides, in data set [2] (oral R-FF extract 140 g/kg), the AUC(0-inf) came to 236 ± 75.6 µg·h/mL, the AUC(0-t) worked out at 167 ± 21.8 µg·h/mL, the concentration peaked (Cmax) at 75600 ± 3060 ng/mL and the Tmax was 0.33 h. Besides, in data set [2] (oral R-FF extract 140 g/kg), the half-life is 33.4 ± 3.36 h and the MRT last came out at 10.6 ± 0.82 h.

Turning to `COc1cc(/C=C/C(=O)O)ccc1O` [Ferulic acid, ferulic acid], in data set [2], the “eliminate rate” value is recorded as “fast eliminate rate”; the “double peak phenomena” value is reported as “obvious double peak phenomena”. Moreover, in data set [2] (oral H-FF extract 140 g/kg), the AUC(0-inf) was found to be 2.25 ± 0.442 µg·h/mL, the AUC(0-t) stood at 1.76 ± 0.224 µg·h/mL, the Cmax was 380 ± 5.89 ng/mL and the Tmax was found to be 0.33 h. In data set [2] (oral H-FF extract 140 g/kg), the half-life was 3.31 ± 0.68 h and the MRT last was 3.33 ± 0.11 h. Also, in data set [2] (oral R-FF extract 140 g/kg), the AUC(0-inf) is 2.14 ± 0.196 µg·h/mL, the AUC(0-t) came out at 0.853 ± 0.0294 µg·h/mL, the peak level (Cmax) was 253 ± 25.7 ng/mL and the Tmax was found to be 0.33 h. For the same compound, in data set [2] (oral R-FF extract 140 g/kg), the half-life is 5.07 ± 1.87 h and the MRT last was found to be 4.21 ± 0.11 h.

On to `O=C(/C=C/c1ccc(O)c(O)c1)O[C@H]1[C@H](O)C[C@](O)(C(=O)O)C[C@H]1O` [Cryptochlorogenic acid, cryptochlorogenic acid], for which, in data set [2], the “eliminate rate” value is listed as “slow eliminate rate”; the “change of T1/2 in H-FF group” value is recorded as “a little shorter”. For the same compound, in data set [2] (oral H-FF extract 140 g/kg), the AUC(0-inf) turned out to be 401 ± 22 µg·h/mL, the AUC(0-t) was 351 ± 16.7 µg·h/mL, the Cmax is 97300 ± 1150 ng/mL and the Tmax came out at 0.33 h. In addition, in data set [2] (oral H-FF extract 140 g/kg), the half-life was 17.6 ± 1.57 h and the MRT last amounted to 13.2 ± 0.39 h. In data set [2] (oral R-FF extract 140 g/kg), the AUC(0-inf) was 242 ± 49.1 µg·h/mL, the AUC(0-t) turned out to be 170 ± 5.98 µg·h/mL, the Cmax turned out to be 67800 ± 3100 ng/mL and the time of peak concentration (Tmax) was determined as 0.33 h. Further, in data set [2] (oral R-FF extract 140 g/kg), the half-life is 21.9 ± 9.25 h and the MRT last came out at 11.2 ± 0.53 h.

`C[C@@H]1O[C@@H](OC[C@H]2O[C@@H](Oc3c(-c4ccc(O)c(O)c4)oc4cc(O)cc(O)c4c3=O)[C@H](O)[C@@H](O)[C@@H]2O)[C@H](O)[C@H](O)[C@H]1O` [Rutin, rutin]: in data set [2], the “eliminate rate” value is listed as “slow eliminate rate”; the “double peak phenomena” value was “obvious double peak phenomena”; the “change of MRT0–t in H-FF group” value is on record as “increased”. Besides, in data set [2] (oral H-FF extract 140 g/kg), the AUC(0-inf) was 105 ± 9.98 µg·h/mL, the AUC(0-t) worked out at 64.6 ± 4.91 µg·h/mL, the highest concentration (Cmax) came to 7040 ± 429 ng/mL and the Tmax came to 0.39 ± 0.09 h. For the same compound, in data set [2] (oral H-FF extract 140 g/kg), the half-life was 14.3 ± 2.28 h and the MRT last was 22.7 ± 0.82 h. Moreover, in data set [2] (oral R-FF extract 140 g/kg), the AUC(0-inf) came to 211 ± 37.9 µg·h/mL, the AUC(0-t) was 100 ± 9.13 µg·h/mL, the Cmax was found to be 7430 ± 446 ng/mL and the Tmax worked out at 0.33 h. Besides, in data set [2] (oral R-FF extract 140 g/kg), the half-life is 30.7 ± 14 h and the MRT last is 18.91 ± 0.17 h.

The record behind these values is paper PMC7256776, “Pharmacokinetic Comparisons of Eight Active Components from Raw Farfarae Flos and Honey-Processed Farfarae Flos after Oral Administration in Rats by UHPLC-MS/MS Approaches” (Journal of Analytical Methods in Chemistry, 2020).
